A word on the IC50: it is the point on the concentration scale where inhibition reaches its midpoint.

The results in this text go back to patent US12570666B2, “Furoindazole derivatives” (Bayer Aktiengesellschaft, priority 2019, dated 2026).

The target in this assay is T1, human GPR84 receptor (Homo sapiens, UniProt Q9NQS5).
T1 construct: frozen aliquots prepared by acCELLerate; host or cells: CHO-K1
Nature of the assay: cAMP HTRF assay for identification of cellular GPR84 antagonists. It is filed as cell-based. The following applies: CHO-K1 cells stably expressing human GPR84; Forskolin + agonist 6-OAU (EC80); average or median values. From the text:
cAMP HTRF® Assay for Identification of Cellular GPR84 Antagonists
By using a Homogenous Time-Resolved Fluorescence (HTRF®) based assay (#62AM5PEJ, Cisbio, Condolet, France) the inhibition of the Gi-coupled GPR84 receptor can be detected. CHO-K1 cells stably expressing human GPR84 receptor (purchased from DiscoveRx, now Eurofins) were used and treated with Forskolin (F6886, Sigma, Germany) to stimulate membrane adenylyl cyclases and thereby unspecific cAMP formation. Activation of the Gi-coupled GPR84 by a natural or small molecule agonist (e.g. 6-n-octyl aminouracile, inhouse) results in inhibition of cellular cAMP formation which can be released again by antagonists to this receptor. Detection and quantification of cellular cAMP levels in this HTRF assay is achieved by interaction between a fluorescent cAMP tracer (cAMP-d2) and an Eu-cryptate labelled anti-cAMP antibody. Following excitation at 337 nm this pairing allows for the generation of a fluorescence resonance energy transfer (FRET) between the partners and results in FRET induced emissions at 665 nm and 620 nm, the latter representing background signal by Eu-cryptate labelled anti-cAMP antibody. Maximal signal is obtained in the absence of any cellular cAMP (no competition for the binding of the tracer to the antibody). Given the combination of the Gi coupling properties of GPR84 and the competitive nature of the detection system agonist treatment should result in an increase in the HTRF signal due to lowered cAMP levels. Any signal decrease in the presence of Forskolin, agonist and compound is indicative of antagonist mediated abrogation of GPR84 signalling.
For the assay, frozen aliquots of CHO-K1 cells expressing hGPR84 (prepared by acCELLerate, Hamburg, Germany) were thawed and a cell suspension (1.67E+06 cells/mL) in assay media (Ham's F12 Nutrient Mix, Thermo Fisher Scientific, Waltham, USA; 5% fetal calf serum, Biomol, Hamburg, Germany) containing cAMP-d2 (dilution 1:20, supplied with the kit #62AM5PEJ, Cisbio, Condolet, France) was prepared. After recovery of cells for 20 minutes at 37° C., 3 μL/well cell suspension including cAMP-d2 were added to a pre-dispensed assay plate (Greiner Bio-One, Kremsmuenster, Austria) containing 50 nl/well test compound in 100% DMSO or 100% DMSO as control. This was followed by a 30 minutes incubation step at room temperature. […] The reaction was stopped by addition of 3 μL/well lysis buffer containing cAMP Eu-Cryptate antibody (dilution 1:20) (both supplied with the kit #62AM5PEJ, Cisbio, Condolet, France). To enable complete lysis, plates were incubated for 60 minutes at room temperature before measurement in an HTRF reader, e.g. a PHERAstar (BMG Labtech, Ortenberg, Germany).
From the fluorescence emissions at 665 nm (FRET) and at 620 nm (background signal of Eu-cryptate) the ratio (emission at 665 nm divided by emission at 620 nm×10000) was calculated and the data were normalized (reaction without test compound, only 100% DMSO=0% inhibition; all other assay components except agonist=100% inhibition). For dose response testing on the same microtiter plate, compounds were tested at 11 different concentrations in the range of 20 μM to 0.07 nM (20 μM, 5.7 μM, 1.6 μM, 0.47 μM, 0.13 μM, 38 nM, 11 nM, 3.1 nM, 0.89 nM, 0.25 and 0.07 nM; dilution series prepared before the assay at the level of the 100-fold conc. stock solutions by serial 1:3.5 dilutions in 100% DMSO) in duplicate values for each concentration. IC50 values were calculated by 4-parameter fitting using a commercial software package (Genedata Screener, Basel, Switzerland).
Examples were tested in selected biological assays one or more times. […]

T1 sequence (Q9NQS5 whole entry): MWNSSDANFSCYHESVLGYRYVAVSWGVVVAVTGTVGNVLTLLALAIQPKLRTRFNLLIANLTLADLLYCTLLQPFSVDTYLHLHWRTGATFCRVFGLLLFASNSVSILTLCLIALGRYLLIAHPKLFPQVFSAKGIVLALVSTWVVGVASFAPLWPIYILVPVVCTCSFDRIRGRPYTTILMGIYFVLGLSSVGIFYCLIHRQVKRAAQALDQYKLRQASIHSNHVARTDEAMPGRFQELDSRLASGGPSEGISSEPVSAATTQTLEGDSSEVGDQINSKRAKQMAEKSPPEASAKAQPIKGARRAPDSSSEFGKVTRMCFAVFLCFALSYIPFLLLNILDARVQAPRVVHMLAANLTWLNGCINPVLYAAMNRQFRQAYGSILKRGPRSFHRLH

Turning to `CCN1CCC(Cn2cc3c(n2)-c2c(oc(C(=O)NC[C@@H]4CCCO4)c2C(F)(F)F)CC3)CC1` [Example 311, 2-[(1-ethylpiperidin-4-yl)methyl]-N-{[(2S)-oxolan-2-yl]methyl}-8-(trifluoromethyl)-4,5-dihydro-2H-furo[2,3-g]indazole-7-carboxamide], the IC50 came out at 202 nM.
`Cc1c(C(=O)NC[C@@H]2CCCO2)oc2c1-c1nn(Cc3ncccc3Cl)cc1CC2` [Example 60, 2-[(3-chloropyridin-2-yl)methyl]-8-methyl-N-[(2S)-tetrahydrofuran-2-ylmethyl]-4,5-dihydro-2H-furo[2,3-g]indazole-7-carboxamide]: the IC50 was 27 nM.
On to `Cc1c(C(=O)NC[C@@H]2CCCO2)oc2c1-c1nn(C[C@H]3CN(C)CCO3)cc1CC2` [Example 101, 8-methyl-2-{[(2R)-4-methylmorpholin-2-yl]methyl}-N-[(2S)-tetrahydrofuran-2-ylmethyl]-4,5-dihydro-2H-furo[2,3-g]indazole-7-carboxamide], for which the IC50 is 1540 nM.
In the case of `Cc1cccc(Cn2cc3c(n2)-c2c(oc(C(=O)NCc4cc(C5CC5)on4)c2C)CC3)n1` [Example 68, N-[(5-cyclopropyl-1,2-oxazol-3-yl)methyl]-8-methyl-2-[(6-methylpyridin-2-yl)methyl]-4,5-dihydro-2H-furo[2,3-g]indazole-7-carboxamide], the IC50 came to 170 nM.
Regarding `Cc1c(C(=O)NC[C@@H]2CCCO2)oc2c1-c1nn(Cc3ccc(C#N)cn3)cc1CC2` [Example 319, 2-[(5-cyanopyridin-2-yl)methyl]-8-methyl-N-{[(2S)-oxolan-2-yl]methyl}-4,5-dihydro-2H-furo[2,3-g]indazole-7-carboxamide], the IC50 is 1120 nM.
With `Cc1c(C(=O)NCc2cc[nH]n2)oc2c1-c1nn(Cc3ccccn3)cc1CC2` [Example 22, 8-methyl-N-(1H-pyrazol-3-ylmethyl)-2-(pyridin-2-ylmethyl)-4,5-dihydro-2H-furo[2,3-g]indazole-7-carboxamide], the IC50 is 340 nM.
On to `C[C@@H]1Cc2oc(C(=O)NCc3cn(C)cn3)c(C(F)(F)F)c2-c2nn(C[C@H]3COCCO3)cc21` (single isomer, unassigned) [Example 314, (4R or 4S)-2-{[(2S)-1,4-dioxan-2-yl]methyl}-4-methyl-N-[(1-methyl-1H-imidazol-4-yl)methyl]-8-(trifluoromethyl)-4,5-dihydro-2H-furo[2,3-g]indazole-7-carboxamide], for which the IC50 came to 40 nM.
Under `Cc1c(C(=O)NCC2CCC(=O)O2)oc2c1-c1nn(Cc3ccccn3)cc1CC2` (single isomer, unassigned) [Example 39-1] stands 670 nM; under `Cc1c(C(=O)NC[C@@H]2CCCO2)oc2c1-c1nn(C(C)(C)c3cccnc3)cc1CC2` [Example 289, 8-methyl-N-{[(2S)-oxolan-2-yl]methyl}-2-[2-(pyridin-3-yl)propan-2-yl]-4,5-dihydro-2H-furo[2,3-g]indazole-7-carboxamide], 801 nM; under `Cc1c(C(=O)NC[C@H]2CCOC2)oc2c1-c1nn(Cc3ccccn3)cc1CC2` [Example 33-2, 8-methyl-2-(pyridin-2-ylmethyl)-N-[(3R)-tetrahydrofuran-3-ylmethyl]-4,5-dihydro-2H-furo[2,3-g]indazole-7-carboxamide], 2890 nM.
On to `Cc1c(C(=O)NCc2ccon2)oc2c1-c1nn(Cc3ccccn3)cc1CC2` [Example 6, 8-methyl-N-(1,2-oxazol-3-ylmethyl)-2-(pyridin-2-ylmethyl)-4,5-dihydro-2H-furo[2,3-g]indazole-7-carboxamide], for which the IC50 amounted to 800 nM.
Turning to `Cc1c(C(=O)NCc2cc(C3CC3)on2)oc2c1-c1nn(Cc3ccccn3)cc1CC2` [Example 7, N-[(5-cyclopropyl-1,2-oxazol-3-yl)methyl]-8-methyl-2-(pyridin-2-ylmethyl)-4,5-dihydro-2H-furo[2,3-g]indazole-7-carboxamide], the IC50 came out at 150 nM.
As to `Cc1c(C(=O)NCCN2CCN(C)CC2)oc2c1-c1nn(CC3COc4ncccc4O3)cc1CC2` (racemic) [Example 54, 2-[(2R/S)-2,3-dihydro[1,4]dioxino[2,3-b]pyridin-2-ylmethyl]-8-methyl-N-[2-(4-methylpiperazin-1-yl)ethyl]-4,5-dihydro-2H-furo[2,3-g]indazole-7-carboxamide], the concentration for half-maximal inhibition (IC50) was 550 nM.
`C[C@@H]1Cc2oc(C(=O)NCc3ccn(C)n3)c(C(F)(F)F)c2-c2nn(C[C@H]3COCCO3)cc21` (single isomer, unassigned) [Example 257, (4R or 4S)-2-{[(2S)-1,4-dioxan-2-yl]methyl}-4-methyl-N-[(1-methyl-1H-pyrazol-3-yl)methyl]-8-(trifluoromethyl)-4,5-dihydro-2H-furo[2,3-g]indazole-7-carboxamide]: the IC50 stood at 25 nM.
On to `Cc1c(C(=O)NC[C@H]2COCCO2)oc2c1-c1nn(C[C@H]3COCCO3)cc1C1(CCC1)C2` [Example 144, N,2′-bis[(2S)-1,4-dioxan-2-ylmethyl]-8′-methyl-2′,5′-dihydrospiro[cyclobutane-1,4′-furo[2,3-g]indazole]-7′-carboxamide], for which the IC50 stood at 7390 nM.
Regarding `CC1Cc2oc(C(=O)NC[C@@H]3COCCO3)c(C(F)(F)F)c2-c2nn(C[C@H]3COCCO3)cc21` (mixture of isomers) [Example 254, (4±)-N-{[(2R)-1,4-dioxan-2-yl]methyl}-2-{[(2S)-1,4-dioxan-2-yl]methyl}-4-methyl-8-(trifluoromethyl)-4,5-dihydro-2H-furo[2,3-g]indazole-7-carboxamide], the IC50 stood at 6 nM.
`Cc1cccc(Cn2cc3c(n2)-c2c(oc(C(=O)NCCN4CCCC4)c2C)CC3)n1` [Example 69, 8-methyl-2-[(6-methylpyridin-2-yl)methyl]-N-[2-(pyrrolidin-1-yl)ethyl]-4,5-dihydro-2H-furo[2,3-g]indazole-7-carboxamide]: the IC50 was 750 nM.
On to `Cc1c(C(=O)NCC2(F)COC2)oc2c1-c1nn(Cc3ccccn3)cc1CC2` [Example 37, N-[(3-fluorooxetan-3-yl)methyl]-8-methyl-2-(pyridin-2-ylmethyl)-4,5-dihydro-2H-furo[2,3-g]indazole-7-carboxamide], for which the IC50 was determined as 9500 nM.
For `C[C@@H]1Cc2oc(C(=O)NCc3cnc(C4CC4)cn3)c(C(F)(F)F)c2-c2nn(C[C@H]3COCCO3)cc21` (single isomer, unassigned) [Example 322, (4R or 4S)—N-[(5-cyclopropylpyrazin-2-yl)methyl]-2-{[(2S)-1,4-dioxan-2-yl]methyl}-4-methyl-8-(trifluoromethyl)-4,5-dihydro-2H-furo[2,3-g]indazole-7-carboxamide], the IC50 worked out at 2 nM.
Take `O=C(NCCc1cnccn1)c1oc2c(c1C(F)(F)F)-c1nn(C[C@H]3COCCO3)cc1CC2` [Example 240, 2-{[(2S)-1,4-dioxan-2-yl]methyl}-N-[2-(pyrazin-2-yl)ethyl]-8-(trifluoromethyl)-4,5-dihydro-2H-furo[2,3-g]indazole-7-carboxamide]: the IC50 amounted to 2810 nM.
Consider `Cc1c(C(=O)NC[C@@H]2CCOC2)oc2c1-c1nn(Cc3ccccn3)cc1CC2` [Example 33-1, 8-methyl-2-(pyridin-2-ylmethyl)-N-[(3S)-tetrahydrofuran-3-ylmethyl]-4,5-dihydro-2H-furo[2,3-g]indazole-7-carboxamide], for which the concentration for half-maximal inhibition (IC50) amounted to 1890 nM.
Take `Cc1c(C(=O)NCC2OCCC2(C)C)oc2c1-c1nn(Cc3ccccn3)cc1CC2` (racemic) [Example 179]: the half-maximal inhibitory concentration (IC50) is 6410 nM.
